Where a chain is given by its changes, count along the chain named.
Legend:
[1] = target: T1, Type-2 angiotensin II receptor (Homo sapiens, UniProt P50052); assay: […] inhibitory concentration against AT2 receptor of human adrenal membrane
T1 sequence (P50052 whole entry): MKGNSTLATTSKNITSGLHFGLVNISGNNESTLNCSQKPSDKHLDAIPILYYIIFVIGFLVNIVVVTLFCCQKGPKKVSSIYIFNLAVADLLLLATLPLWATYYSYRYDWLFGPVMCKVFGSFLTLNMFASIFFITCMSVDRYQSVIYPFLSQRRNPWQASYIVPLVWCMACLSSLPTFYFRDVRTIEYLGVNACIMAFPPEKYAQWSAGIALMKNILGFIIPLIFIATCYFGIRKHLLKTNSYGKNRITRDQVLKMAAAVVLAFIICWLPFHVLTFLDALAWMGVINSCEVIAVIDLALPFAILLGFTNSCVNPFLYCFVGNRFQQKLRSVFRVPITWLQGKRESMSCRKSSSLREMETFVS

[2] = target: T2, Type-2 angiotensin II receptor (Rattus norvegicus, UniProt P35351); assay: […] inhibitory concentration against AT2 receptor of rat adrenal membrane
T2 sequence (P35351 whole entry): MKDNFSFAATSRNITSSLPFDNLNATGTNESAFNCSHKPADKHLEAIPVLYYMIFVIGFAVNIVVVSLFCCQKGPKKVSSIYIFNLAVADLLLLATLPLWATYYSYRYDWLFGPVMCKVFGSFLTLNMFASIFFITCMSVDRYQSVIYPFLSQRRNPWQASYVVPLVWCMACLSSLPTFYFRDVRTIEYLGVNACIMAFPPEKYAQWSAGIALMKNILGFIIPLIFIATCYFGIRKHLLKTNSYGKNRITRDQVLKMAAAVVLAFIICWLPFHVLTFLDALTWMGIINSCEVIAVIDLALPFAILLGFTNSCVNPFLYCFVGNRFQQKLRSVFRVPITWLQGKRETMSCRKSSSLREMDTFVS

[3] = target: T3, Type-1 angiotensin II receptor (Oryctolagus cuniculus, UniProt P34976); assay: […] inhibitory concentration against Angiotensin II receptor, type 1 of rabbit aorta membrane
T3 sequence (P34976 whole entry): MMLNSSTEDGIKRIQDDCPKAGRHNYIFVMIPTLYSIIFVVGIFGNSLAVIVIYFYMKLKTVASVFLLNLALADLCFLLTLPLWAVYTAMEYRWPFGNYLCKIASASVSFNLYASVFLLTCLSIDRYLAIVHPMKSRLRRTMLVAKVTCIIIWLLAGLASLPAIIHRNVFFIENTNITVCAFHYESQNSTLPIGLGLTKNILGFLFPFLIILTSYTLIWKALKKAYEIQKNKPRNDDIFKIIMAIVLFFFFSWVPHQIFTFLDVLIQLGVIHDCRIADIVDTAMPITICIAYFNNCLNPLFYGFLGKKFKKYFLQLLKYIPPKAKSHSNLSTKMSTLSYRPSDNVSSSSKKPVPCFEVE

[4] = target: T2, Type-2 angiotensin II receptor; assay: […] inhibitory concentration against Angiotensin II, type 2 of rat midbrain membrane
[5] = target: T4, Angiotensin II receptor (AT-1) type-1 (Rattus norvegicus, UniProt P29089+P25095); assay: […] inhibitory concentration against Angiotensin II receptor, type 1 of rat adrenal membrane
T4 sequence (P29089 whole entry): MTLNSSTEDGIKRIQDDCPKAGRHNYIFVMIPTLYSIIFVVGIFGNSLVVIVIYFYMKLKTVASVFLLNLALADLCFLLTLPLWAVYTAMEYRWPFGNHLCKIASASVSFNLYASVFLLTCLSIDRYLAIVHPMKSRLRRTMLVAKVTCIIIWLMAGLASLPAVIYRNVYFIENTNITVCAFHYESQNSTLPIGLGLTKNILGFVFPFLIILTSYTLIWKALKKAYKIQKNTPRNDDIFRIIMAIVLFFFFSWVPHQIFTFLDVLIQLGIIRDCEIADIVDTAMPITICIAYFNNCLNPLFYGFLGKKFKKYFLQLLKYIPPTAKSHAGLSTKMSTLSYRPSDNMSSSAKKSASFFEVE
T4 sequence (P25095 whole entry): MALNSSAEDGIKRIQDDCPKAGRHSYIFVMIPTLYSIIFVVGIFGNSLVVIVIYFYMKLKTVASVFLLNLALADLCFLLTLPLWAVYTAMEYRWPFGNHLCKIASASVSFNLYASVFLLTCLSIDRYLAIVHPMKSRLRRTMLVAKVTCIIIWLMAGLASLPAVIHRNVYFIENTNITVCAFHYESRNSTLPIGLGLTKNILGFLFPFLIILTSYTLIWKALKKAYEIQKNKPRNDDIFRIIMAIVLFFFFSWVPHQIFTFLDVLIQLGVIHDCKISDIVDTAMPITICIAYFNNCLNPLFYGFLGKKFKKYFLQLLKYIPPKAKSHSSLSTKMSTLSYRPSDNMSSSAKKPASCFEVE

[6] = tested on: Canis familiaris; assay: In vivo inhibition of angiotensin II induced pressor response in dogs at a dose of 1.0 mg/Kg after 6 hr administered intravenously; format: functional; details: Canis lupus familiaris, iv
[7] = tested on: Rattus norvegicus; assay: In vivo inhibition of angiotensin II induced pressor response in rats at a dose of 1.0 mg/Kg after 6 hr administered intravenously; format: functional; details: iv
[8] = organism: Oryctolagus cuniculus; assay: Ratio of inhibitory concentration against AT2 receptor of rat midbrain to AT1 receptor of rabbit aorta
[9] = target: Angiotensin II receptor (Homo sapiens) (UniProt P30556+P50052); assay: Ratio of inhibitory concentration against AT2 receptor and AT1 receptor of human adrenal membrane
Angiotensin II receptor (Homo sapiens), sequence (P30556 whole entry, looked up, one chain of several): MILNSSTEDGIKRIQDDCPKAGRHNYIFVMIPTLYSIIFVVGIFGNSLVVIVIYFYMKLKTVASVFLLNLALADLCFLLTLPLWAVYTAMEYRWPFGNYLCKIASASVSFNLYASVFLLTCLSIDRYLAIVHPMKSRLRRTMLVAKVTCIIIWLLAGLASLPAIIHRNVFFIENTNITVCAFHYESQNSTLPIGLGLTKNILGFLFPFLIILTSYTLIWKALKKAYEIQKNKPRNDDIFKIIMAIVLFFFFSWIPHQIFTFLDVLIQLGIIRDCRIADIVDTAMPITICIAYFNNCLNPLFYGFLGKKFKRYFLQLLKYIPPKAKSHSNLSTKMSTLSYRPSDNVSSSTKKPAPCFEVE

[10] = target: Angiotensin II receptor (Rattus norvegicus) (UniProt P29089+P25095+P35351); assay: Ratio of inhibitory concentration against AT2 receptor and AT1 receptor of rat adrenal membrane
[11] = target: T5, Type-1 angiotensin II receptor (Homo sapiens, UniProt P30556); assay: […] inhibitory concentration against Angiotensin II receptor, type 1 of human adrenal membrane
T5 sequence (P30556 whole entry): T3 sequence (P34976 whole entry) with M2I, A49V, V254I, V270I, H272R, K311R, S349T, V353A

[12] = tested on: Rattus norvegicus; assay: In vivo inhibition of angiotensin II induced pressor response in rats at a dose of 1.0 mg/Kg administered intravenously; format: functional; details: iv
[13] = tested on: Canis familiaris; assay: In vivo inhibition of angiotensin II induced pressor response in dogs at a dose of 1.0 mg/Kg administered intravenously; format: functional; details: Canis lupus familiaris, iv

IC50 [1] | IC50 [2] | IC50 [3] | IC50 [4] | IC50 [5] | Ratio [8] | Ratio [9] | Ratio [10] | IC50 [11] | SMILES | inhibition in vivo at 1 mg/kg [6] | inhibition in vivo at 1 mg/kg [7] | inhibition in vivo at 1 mg/kg [12] | inhibition in vivo at 1 mg/kg [13]
6.2 nM | 0.77 nM | 0.57 nM | 0.39 nM | 0.5 nM | 1.2 | 0.87 | 1.83 | 8.1 nM | CCc1nc2ccc(NC(=O)N(C)C(C)C)cc2c(=O)n1Cc1ccc(-c2ccccc2S(=O)(=O)NC(=O)OCCC2CC2)cc1F | 48% | 62% | 91% | 89%
37 nM | 0.63 nM | 2.3 nM | 1.8 nM | 1.3 nM | 0.79 | 0.47 | 2.5 | 85 nM | CCc1nc2ccc(NC(=O)c3ccccn3)cc2c(=O)n1Cc1ccc(-c2ccccc2S(=O)(=O)NC(=O)OCCC(C)C)cc1F | – | – | – | –
9.3 nM | 1.04 nM | 0.77 nM | 0.75 nM | 0.39 nM | 0.97 | 0.62 | 2.7 | 14.7 nM | CCc1nc2ccc(NC(=O)N(C)C(C)C)cc2c(=O)n1Cc1ccc(-c2ccccc2S(=O)(=O)NC(=O)OCC=C(C)C)cc1F | – | – | – | –
11 nM | 0.63 nM | 1.2 nM | 0.7 nM | 0.5 nM | 0.59 | 0.93 | 1.2 | 15 nM | Cc1nc2ccc(NC(=O)NC(C)C)cc2c(=O)n1Cc1ccc(-c2ccccc2S(=O)(=O)NC(=O)OCCC(C)C)cc1F | – | – | – | –

Source: ChEMBL document CHEMBL1150477, “Development of angiotensin II antagonists with equipotent affinity for human AT1 and AT2 receptor subtypes” (Bioorg Med Chem Lett, 1994)
